Laboratory results from patent US20180333371A1, “CURCUMIN AND RESVERATROL FOR CHRONIC INFLAMMATION” (DSM IP Assets B.V., priority 2015, published 2018).

Experiments:
Type in all cases: cell-based, Sprague Dawley rat
[1] = test system: PGE2 release from primary microglia; assay: Synergism analysis (median-effect principle, combination index, ComboSyn) of PGE2 release inhibition
[2] = test system: PGE2 release from primary microglia; assay: LPS-stimulated PGE2 release by primary microglia (ELISA); conditions: for effect on PGE2 release: FIG. 2A
From the text: (§1) Microglial Harvesting and Culture. All experiments involving animals were approved by the Animal Care and Use Committee established at Bolder Biopath, Inc. (Boulder, Colo.). Primary microglial cultures were derived from neocortical tissue of E22 Sprague Dawley rat pups taken from timed-pregnant dams (Charles River) by Caesarean section. Briefly, the pup brain cortices were isolated in Hibernate EB (Brain Bits; Springfield, Ill.). The samples were then transferred to Hibernate E (without Ca; Brain Bits; Springfield, Ill.) and washed twice with fresh Hibernate E (−Ca). The tissue was next digested in Hibernate E (−Ca) containing 0.5% trypsin (Sigma) for 15 min at 37° C.). The overlying solution was removed, and the trypsin reaction was quenched by washing the settled tissue with Hibernated E (—Ca) containing 20% heat-inactivated fetal bovine serum (FBS; Hyclone).
The tissue was triturated into single cells, and the suspension was filtered through a 70-μm cell strainer. Cell numbers and viability were consistently greater than 95% as determined using trypan blue (0.4%; Fisher Scientific) and a Countess automated cell counter (Life Technologies, Grand Island, N.Y.). Cells were seeded into T-75 flasks (VWR) at 8×10^6 cells/flask in HiGlutaXL Dulbecco's Modified Eagle Medium (DMEM, 4.5 g/L glucose, plus glutamine; HyClone) containing 100 μg/mL penicillin, 100 μg/mL streptomycin, 0.5 ng/mL amphotericin (CellnTec) and 1 mM sodium pyruvate. The media was changed on day 3 in vitro, and the cells were fed every 4-5 days while in the flasks. At day 14 in vitro, mouse granulocyte macrophage colony stimulating factor (mGM-CSF; R&D Systems; Minneapolis, Minn.) was added at a final concentration of 5 ng/mL to stimulate microglial differentiation.
(§2) Cell Stimulation and Cytokine Assays. […] The concentration of prostaglandin E2 (PGE2) in the supernatant was measured by ELISA (Cayman Chemical). The concentrations of tumor necrosis factor-α (TNF-α), interleukin-1β (IL-1β) and interleukin-6 (IL-6) in the supernatant were determined by multiplex ELISA (Quansys Biosciences; Logan, Utah). […]

[3] = test system: IL-1β release by primary microglia; assay: LPS-stimulated IL-1β release by primary microglia (multiplex ELISA); conditions: 0-250 μM, FIG. 2C
From the text: as §1, with “The overlying solution was removed, and the trypsin reaction was quenched by washing the settled tissue with Hibernated E (—Ca) containing 20% heat-inactivated fetal bovine serum (FBS; Hyclone).” left out
(§3) The tissue was triturated into single cells, and the suspension was filtered through a 70-μm cell strainer. Cell numbers and viability were consistently greater than 95% as determined using trypan blue (0.4%; Fisher Scientific) and a Countess automated cell counter (Life Technologies, Grand Island, N.Y.). […]
as §2

[4] = test system: TNF-α release by primary microglia; assay: LPS-stimulated TNF-α release by primary microglia (multiplex ELISA); conditions: 0-250 μM, FIG. 2B
From the text: as §1, with “The overlying solution was removed, and the trypsin reaction was quenched by washing the settled tissue with Hibernated E (—Ca) containing 20% heat-inactivated fetal bovine serum (FBS; Hyclone).” left out
as §3, §2

IC50 ([2]; Rattus norvegicus, FIG. 3): 2.25 µM
Structure (SMILES): Oc1ccc(C=Cc2cc(O)cc(O)c2)cc1 [Resveratrol, resveratrol]
Dose reduction index (DRI) ([1]; in combination resveratrol 2.25 μM + curcumin C3 7 nM, FIG. 4): 42.76
decrease in concentration that would still have a synergistic effect in combination ([1]; relative to 2.25 μM resveratrol / 7 nM curcumin C3): 43%
effect on PGE2 release ([2]; 75 μM): significantly inhibited
effect on PGE2 release ([2]; 250 μM): significantly inhibited
significant effects on IL-1β release [3]: not detected
significant effects on TNF-α release [4]: not detected
